Key:
B^0AT1 [1] = biological target: T1, B^0AT1 (Homo sapiens, UniProt Q695T7); experiment: Mode of inhibition: leucine uptake kinetics at three inhibitor concentrations, FLIPR, Eadie-Hofstee; assay type: cell-based; settings: CHO-BC cells
T1 construct: expressed in transfected cells
T1 sequence (Q695T7 1-634): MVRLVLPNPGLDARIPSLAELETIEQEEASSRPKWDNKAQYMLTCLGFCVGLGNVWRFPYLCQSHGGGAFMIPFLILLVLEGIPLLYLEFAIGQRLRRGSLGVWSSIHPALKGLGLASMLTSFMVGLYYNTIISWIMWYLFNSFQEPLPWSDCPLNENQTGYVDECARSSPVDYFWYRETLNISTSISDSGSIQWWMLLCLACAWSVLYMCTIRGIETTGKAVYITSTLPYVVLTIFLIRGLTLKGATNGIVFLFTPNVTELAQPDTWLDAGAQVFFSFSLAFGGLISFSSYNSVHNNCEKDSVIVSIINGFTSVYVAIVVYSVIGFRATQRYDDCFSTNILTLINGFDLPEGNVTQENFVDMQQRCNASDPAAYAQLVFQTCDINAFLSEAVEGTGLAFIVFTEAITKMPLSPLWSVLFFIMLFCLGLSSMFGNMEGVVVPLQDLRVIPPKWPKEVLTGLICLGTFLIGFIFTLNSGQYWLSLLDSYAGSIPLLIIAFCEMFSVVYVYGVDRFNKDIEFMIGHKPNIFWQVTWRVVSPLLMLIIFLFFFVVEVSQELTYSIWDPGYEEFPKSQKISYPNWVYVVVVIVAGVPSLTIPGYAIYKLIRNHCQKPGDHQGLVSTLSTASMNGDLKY
T1 sequence (Q9HBJ8 15-222 partner): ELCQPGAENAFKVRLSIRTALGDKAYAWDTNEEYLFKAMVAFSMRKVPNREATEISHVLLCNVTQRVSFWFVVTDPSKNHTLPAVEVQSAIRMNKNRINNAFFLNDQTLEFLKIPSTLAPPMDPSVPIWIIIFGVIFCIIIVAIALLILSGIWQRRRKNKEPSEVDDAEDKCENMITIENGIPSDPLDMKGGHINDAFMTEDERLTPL
Source text: To understand the mode of inhibition, we determined KM-values at three different inhibitor concentrations using FLIPR assay and plotted Eadie-Hofstee transformed data ( Figure 5 ). Fully parallel lines indicate a change of […], while fully converging lines (at x = 0; y = Vmax) indicate a change of KM only with increasing concentrations of the inhibitor. […] To rationalize the mode of inhibition, we performed docking studies using a homology model of B^0AT1 based on the outside-open conformation of LeuT. […] In the homology structure the two Na^+ are shown as yellow spheres. Both, LeuT Na^+-site 1 and -site 2 are conserved in B^0AT1, but only one site is used functionally. This is most likely site 1 as it binds the α-carboxyl-group of the amino acids ([O’mara et al., 2006]). […] Many transport inhibitors are substrate analogues that are too large to fit into the occluded substrate binding cavity, thereby blocking the conformational change required for transport ([Broer, 2018]). […] Instead the compounds preferred binding to different sites in the vestibule, including the proposed Substrate-binding site 2 ([Shi et al., 2008]), which was the preferred docking site for compound E4. In the outside open conformation, the volume of the binding site increases, encompassing an orthostatic binding site ( Figure 5H , orange), occupied by E4, E18, or the substrate and an allosteric binding site ( Figure 5H , blue), which is compatible with substrate binding.
Figure 5 Mechanistic aspects of B^0AT1 inhibitors. Inhibition of B^0AT1 by compounds E4 (A), E18 (B) and CB3 (C) (n = 3, e = 3) was determined by FLIPR assay in CHO-BC cells. To determine the mode of inhibition, the kinetic properties of leucine uptake were determined in the presence of three different inhibitor concentrations. Docking poses of compounds E4 (D), E18 (E) and CB3 (F) are shown for comparison. Amino acid side-chains of the binding pocket are shown in green, cosubstrate Na^+ 1 is shown in yellow (foreground), Na^+ 2 is only partially visible in the background and may not exist in B^0AT1. […]

B^0AT1 [2] = biological target: T1, B^0AT1; experiment: Radioactive flux assay (radiolabelled leucine/isoleucine uptake) in CHO-BC cells; assay type: cell-based; settings: 150 μM [14C]leucine or [14C]isoleucine, 6 min, 37°C
Procedure: CHO-BC cells with passage numbers from 3 to 10 were used in radio-labelled uptake assays. Before the assay, the cells were seeded out in 35 mm dishes (Corning) and maintained for 48–72 h until reaching 80–90% confluence. To initiate transport, the culture medium was removed and the cells washed three times with HBSS + G. Subsequently, cells were incubated with HBSS + G, radiolabelled substrates (150 μM L-[U-^14C]leucine or 150 μM L-[U-^14C]isoleucine) and inhibitors as indicated in the figures or table in a 37°C water bath for 6 min. To terminate transport, cells were washed three times with ice-cold HBSS pH 7.5. For measuring sodium-independent uptake, NaCl in Hank’s buffer was replaced by NMDG-Cl. Cells were then harvested by homogenizing with 500 µl of 0.1 M HCl. An aliquot of 400 µl was used for scintillation counting and the remainder for protein quantification. To investigate inhibition of ASCT2, uptake of 100 μM [^14C]glutamine was measured in 143B cells in the absence and presence of inhibitor (at 10 μM and 50 μM). To measure inhibition of LAT1, uptake of [^14C]leucine was measured in HBSS + G in which NaCl was replaced by NMDG-Cl in 143B cells in the absence and presence of inhibitor (at 10 μM and 50 μM).
Data are shown as mean ± S.D., transport activities indicated as Na^+-dependent net uptake, were calculated by subtracting the uptake activity in the absence of Na^+ from the total uptake rate. The fluorescent signals measured in the FLIPR assay were normalized to baseline readings before the addition of substrates. Data are presented as percentage of baseline at each time point. IC50 was calculated using the equation: y=ymax(1−[x]/[x]+IC50) .

| Compound | Mode of inhibition (B^0AT1 [1]) | IC50 (B^0AT1 [2]) [µM] |
| --- | --- | --- |
| Cc1cc(C(=O)Nc2ccc(Cl)cc2C(F)(F)F)no1 [CB3] | more mixed model | 4.9 ± 0.4 |
| Cc1cc(OCC(=O)NC(C)C)cc(C)c1Cl [Compound E4] | largely competitive mode of inhibition | 7.7 ± 1.9 |
| COc1ccccc1Nc1nc2ccccc2s1 [Compound E18] | largely competitive mode of inhibition | 3.4 ± 0.3 |
